Assay results reported in patent US20020048271A1, “Methods and composition for restoring conformational stability of a protein of the p53 family” (priority 1998, published 2002).

Assays:
[1] = test system: mutant p53 (position 173 or position 249) in Saos-2 cells; assay: WAF1 and p53 expression, Western blot, Saos-2 cells with transfected mutant p53; type: cell-based; details: position 173 or 249 mutant; Compound X for 16 hours
Procedure: WAF1 and p53 Expression. […] Protein concentrations were determined using Bradford reagent (BioRad) and 5 or 10 ug of cell lysate were loaded onto 8-16 percent gradient polyacrylamide/SDS gels (Novex). […] The blots were washed for one hour in three changes of Tris buffered saline with 0.1 percent Tween 20, before the addition of the secondary antibody, HRP-conjugated anti-mouse IgG. The bands were visualized using Renaissance ECL (DuPont) and exposure to Hyperfilm ECL (Amersham Life Science).

mutant mouse p53 = details: Brown et al., 1997; cited from earlier work
wild-type p53 DBD = biological target: T1, wild-type p53 DBD (Homo sapiens, UniProt P04637); assay: p53 DBD thermostabilization assay (ELISA for mAb1620 epitope); type: biochemical; details: 0.5 ng of p53 DBD heated at 45° C. for 30 minutes; read-out: SC50: concentration of compound required to preserve 50% of the epitope for mAb 1620
T1 construct: Recombinant DBD (residues 94-312) from wild-tvpe and mutant p53 proteins; made in house
Procedure: Thermostabilization Assay. Recombinant DBD (residues 94-312) from wild-tvpe and mutant p53 proteins and FLAG-tagged p53 DBD were prepared as described (Pavletich et al., 1993, Genes and Dev. 7, 2556-2564; Bullock et al., 1997, supra.). Mutant proteins used were 143A, 173A, 175S. 249S, and 273H. A number of small molecule organic compounds were tested. Compound stocks were dissolved in DMSO at 10 mg/ml and diluted prior to use. The proteins (0.25-1.0 ng/well) were diluted in a buffer containing 25 mM HEPES, pH 6.8, 150 mM KCl, 10 mM dithiothreitol and attached in 50 ul to Reacti-Bind microtiter plates (Pierce) for 35 minutes on ice. The wells were rinsed with 25 mM HEPES, pH 6.8, 150 mM KCl, compound or diluted DMSO vehicle added, and the plates incubated at the indicated temperatures. Incubation was terminated by placing the wells on ice; ELISA assays performed while maintaining the plates on ice in order to avoid further alterations of the epitopes. Wells were blocked for 1 hour with cold 5 percent skim milk (Difco) in HEPES/KCl buffer prior to addition of the primary antibodies. Monoclonal antibodies mAb1620, mAb240 (Calbiochem) and anti-FLAG M2 antibody (Eastman Kodak Company) were diluted at 1:100-1:250 in HEPES/KCl and added at 100 ul/well for 30 minutes. The plates were rinsed twice with cold HEPES/KCl buffer and incubated with horseradish peroxidase (HRP)-conjugated anti-mouse IgG (Boehringer Mannheim) for another 30 minutes. The HRP signal was developed using TMB developer (Pierce) and the optical density of the signal was read on a BioRad microplate reader set at 450 nm.

T1 sequence (P04637 94-312): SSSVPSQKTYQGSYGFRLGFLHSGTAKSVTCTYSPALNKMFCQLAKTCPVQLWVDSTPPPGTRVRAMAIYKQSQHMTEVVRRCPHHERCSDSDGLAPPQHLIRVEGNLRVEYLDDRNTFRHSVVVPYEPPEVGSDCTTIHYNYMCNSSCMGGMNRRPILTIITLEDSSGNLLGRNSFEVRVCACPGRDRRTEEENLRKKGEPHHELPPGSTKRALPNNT

| EC50 (wild-type p53 DBD) [µM] | Compound | other results |
| --- | --- | --- |
| 120 | CCN(CC)CCCCNc1c2ccccc2cc2ncccc12 [Compound 3B] | – |
| > 300 | CN(C)CCCN1c2ccccc2Sc2ccccc21 [Compound 4B] | – |
| 50 | CCN(CC)CCCNc1c2ccccc2cc2ncccc12 [Compound 3A] | – |
| 38 | CC(CN(C)C)CN1c2ccccc2Sc2ccccc21 (stereo not shown) [Compound 4A] | – |

The next lines start with the compound.

| Compound | EC50 (wild-type p53 DBD) [µM] | other results |
| --- | --- | --- |
| COc1cccc2c1C(=O)c1c(O)c3c(c(O)c1C2=O)C[C@@](O)(C(=O)CO)C[C@@H]3O[C@H]1C[C@H](N)[C@H](O)[C@H](C)O1 [Adriamycin] | – | WAF1 expression in Saos-2 cells with mutant p53 [1]: did not induce WAF-1 expression |
| OCC(O)CO [Glycerol] | – | Concentration restoring nuclear localization of mutant mouse p53 (mutant mouse p53): 600 mM |
| C(=C\c1nc(N2CCOCC2)c2ccccc2n1)/c1ccccc1 [Compound 1B] | > 300 | – |
| C(=C\c1nc(NCCCN2CCOCC2)c2ccccc2n1)/c1ccccc1 [Compound 1A] | 36 | – |
| c1ccc2c(NCCN3CCOCC3)c3cccnc3cc2c1 [Compound 2B] | > 300 | – |
| c1ccc2c(NCCCN3CCOCC3)c3cccnc3cc2c1 [Compound 2A] | 120 | – |
